Source: US6395740B1, “Calcitonin mimetics” (ZymoGenetics, Inc., priority 1997, dated 2002)
In brackets after ≈: the same amount, converted by molar mass.

Tests used:
[1] = molecular target: T1, human calcitonin receptor (Homo sapiens, UniProt P30988); experiment: CRE-luciferase assay for calcitonin mimetic activity; type: cell-based
T1 construct: expressed in transfected cells; host or cells: BHK (baby hamster kidney) cells, line Hollex-2 (Hollex 1 in the general description)
T1 sequence (P30988 25-474): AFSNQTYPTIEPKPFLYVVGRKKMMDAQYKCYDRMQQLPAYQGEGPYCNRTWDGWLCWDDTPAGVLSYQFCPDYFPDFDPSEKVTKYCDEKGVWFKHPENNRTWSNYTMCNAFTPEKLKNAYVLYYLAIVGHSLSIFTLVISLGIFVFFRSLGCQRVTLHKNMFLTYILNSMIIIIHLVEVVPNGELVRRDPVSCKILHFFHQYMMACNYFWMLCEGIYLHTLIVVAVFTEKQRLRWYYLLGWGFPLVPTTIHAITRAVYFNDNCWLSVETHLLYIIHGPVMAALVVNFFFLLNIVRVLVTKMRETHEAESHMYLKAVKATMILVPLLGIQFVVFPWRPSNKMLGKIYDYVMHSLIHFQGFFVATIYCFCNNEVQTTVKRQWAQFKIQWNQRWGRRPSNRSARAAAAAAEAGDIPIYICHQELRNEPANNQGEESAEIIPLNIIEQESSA
Excerpt: An alternative assay system (described in WO96/31536 which is incorporated herein in its entirety) involves selection of substances that are able to induce expression of a cyclic AMP response element (CRE)-luciferase reporter gene, as a consequence of elevated cAMP levels, in cells expressing a calcitonin receptor, but not in cells lacking calcitonin receptor expression. Such cells could include, for example, Boris/KS10-3 (expressing hamster calcitonin receptor and a CRE-luciferase reporter gene in baby hamster kidney cells (BHK 570 cells)) or Hollex 1 (expressing human calcitonin receptor and a CRE-luciferase reporter gene in BHK cells, as described in WO96/31536) or KZ10-20-48/pLJ6-4-25, which expresses the human glucagon receptor and a CRE-luciferase reporter gene in BHK cells. The human glucagon receptor is another member of the G-protein-coupled receptor family that transduces signal through adenylate cyclase-mediated elevation of cAMP.
This CRE-luciferase assay measures the end result of a multi-step signal transduction pathway triggered when a calcitonin mimetic stimulates the G-coupled calcitonin receptor. The complexity of this pathway provides multiple mechanisms for induction of luciferase transcription at points that are downstream of the calcitonin receptor, and therefore may not be calcitonin receptor-specific (e.g., forskolin's direct activation of adenylate cyclase). Any response triggered by non-specific inducers is eliminated by counter screening using the calcitonin receptor-negative cell lines described above.
Receptor-positive and -negative cell lines were maintained by serial passage in growth medium (DMEM supplemented with 10% heat-inactivated fetal calf serum (HI-FCS), 2 mM L-glutamine, 1 mM sodium pyruvate, 250 nM MTX, and 1 mg/mL G418). On the day prior to assay, cells were trypsinized, adjusted to 2×10^5 cells/mL in growth medium, plated in opaque white Dynatech Microlite microtiter tissue culture plates at 100 μL/well (2×10^4 cells), and grown overnight to confluence (37° C., 5% CO2 atmosphere)
Test substances were prepared in DMSO at 100 times the final desired assay concentration. Induction was initiated by adding 100 μL/well test substance diluted 1:100 or 1:1000 (only first round screening extracts were diluted 1:100) in assay medium (DMEM supplemented with 10% HI-FCS, 2 mM L-glutamine, 1 mM sodium pyruvate and 20 mM Hepes, pH 7.25). Controls were included on each plate: untreated wells (basal), […] forskolin, and 100 nM human calcitonin. For test substances prepared in DMSO, an equal concentration of DMSO was included in control wells (not to exceed a final assay concentration of 2% DMSO, with a preferred maximum of 1%). Plates were incubated for 3 to 8 hours (4 hours preferred) at 37° C. in an atmosphere of 5% CO2.
Following induction, luciferase activity was measured using a Promega luciferase assay kit (E1500) according to the assay kit protocol. Briefly, assay medium was removed and cells were washed once with phosphate buffered saline (PBS). After the wash, 25 μL of lysis buffer was added to each well, and the plates were incubated for 15 minutes at room temperature. Fifty microliters of Luciferase Assay Substrate (Promega, Corp.) was added to each well and the plates were transferred to a Labsystems Lumiscan microtiter luminometer. The amount of luminescence (relative light units, RLU) was determined by “Fastscan” following a 0.1 second/well integration of signal. Basal (uninduced) luciferase signal was subtracted from all measurements, and the luciferase signal induced by test samples was expressed as a percentage of the signal in the calcitonin and forskolin controls. […]

[2] = system: PTH-induced bone resorption in mouse calvariae; experiment: Calvarial assay: inhibition of PTH-induced bone resorption (calcium release); type: cell-based; conditions: 1 nM PTH 1-34, 72 hours, read-out: Release of PTH Induced Ca++ IC50
Protocol: Calvaria from 4-day old neonatal CD-1 mice (pregnant mice received from Charles River Laboratories, Wilmington, Mass.) were trimmed with fine-tipped scissors to leave the parietal regions, including the sagittal suture. These trimmed bones were placed singly per well into 6-well cell culture cluster plates (Costar, Pleasanton, Calif.) with 1 mL/well of growth medium (DMEM, BioWhittaker, Walkersville, Md.) with 4.5 g/L glucose, 0.29 mg/mL L-glutamine, 1 mM sodium pyruvate, 15% heat-inactivated horse serum, and antibiotics (penicillin-G 50 μg/mL, streptomycin 50 μg/mL, and neomycin 100 μg/mL), and rocked gently (RedRocker™, model PR50-115V, Hoefer, San Francisco, Calif.) at 37° C. in a 5% CO2 humidified incubator for 24 hours preincubation.
Following preincubation, medium was removed and replaced with 1.5 mL/well of growth medium containing 1 nM parathyroid hormone (PTH) 1-34 (Sigma) to stimulate bone resorption. For evaluation of the ability of calcitonin mimetics to inhibit PTH induced bone resorption, mimetic compounds in DMSO were added to the growth medium at concentrations ranging from 1-400 μg/mL (final assay concentration of DMSO less than or equal to […]). In each exierimerec human calcitonin (0.02-20 nM, 0.2-2 nM preferred) was added to PTH treated bones as a positive control. […] All control wells contained a final assay concentration of DMSO equal to that present in calcitonin mimetic treated wells.
Five bones were included in each sample group. Bones were incubated for 72 hours following PTH addition to allow resorption of bone to occur. Observations were made of the general appearance, healthiness and number of cells that migrate from the calvaria during the incubation as a possible indication of possible toxicity. Calvaria to be examined histologically were transferred to glass scintillation vials containing 10 mL of 10% neutral buffered formalin. The medium was removed from the wells, and total calcium measurements were made using a Nova 7/7+7 Electrolyte Analyzer (Nova Biomedical, Waltham, Mass.) according to the manufacturer's specifications. Induction of bone resorption by PTH is seen as an increase in the concentration of calcium in the growth medium due to degradation of the bone matrix.

[3] = rats, evaluated by pQCT or histomorphometry; cited from earlier work

Molecule	EC50 [1] [µM]	IC50 [2] [µg/mL]	melting point [°C]	bone loss associated with combined ovariectomy and immobilization [3]
calcitonin				very effective at reducing bone loss
COc1cc(CN2CCN(C(=O)Nc3cccc(C(F)(F)F)c3)CC2)cc(O)c1OC [Compound 50-2013]	43.2	15 (≈ 34.1 µM)		
COc1cc(CN2CCN(Cc3ccc(OC)c(OC)c3OC)CC2)cc(I)c1O [Compound 850-0221]	291			
COc1cc(CN2CCN(C(=O)Nc3cccc(C(F)(F)F)c3)CC2)cc(OC)c1OC [Compound 850-0277]		50 (≈ 110 µM)	79 to 82	

Continued, in another order:

EC50 [1] [µM]	IC50 [2] [µg/mL]	melting point [°C]	Molecule	bone loss associated with combined ovariectomy and immobilization [3]
51.8 to 104	25 to 50 (≈ 51.8 to 104 µM)		COc1ccc(CN2CCN(Cc3cc(I)c(O)c(OC)c3)CC2)cc1C [Compound 850-0293]	
206	25 (≈ 51.4 µM)		COc1cc(CN2CCN(Cc3cc(Br)ccc3O)CC2)cc(Br)c1O [Compound 850-2346]	
66.9	20 (≈ 37.7 µM)		COc1cc(CN2CCN(Cc3cc(Br)cc(Br)c3O)CC2)cc(OC)c1OC [Compound 850-1085]	
